Assay results published in PubChem BioAssay (NCI).
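Briefly, cells in 96-well plates were exposed to five compound concentrations for 48 h, and endpoints were estimated by linear interpolation. GI50 is the concentration that inhibits growth by half. The concentration for full growth arrest is given as TGI.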

Key:
Assay in all cases: NCI anticancer screen, dose series, 48 h
786-0 renal = system: 786-0 renal
A498 renal = system: A498 renal
A549 NSCLC = system: A549 NSCLC
ACHN renal = system: ACHN renal
BT-549 breast = system: BT-549 breast
CAKI-1 renal = system: CAKI-1 renal
CCRF-CEM leukemia = system: CCRF-CEM leukemia
COLO 205 colon = system: COLO 205 colon
DU-145 prostate = system: DU-145 prostate
EKVX NSCLC = system: EKVX NSCLC
HCC-2998 colon = system: HCC-2998 colon
HCT-116 colon = system: HCT-116 colon
HCT-15 colon = system: HCT-15 colon
HL-60(TB) leukemia = system: HL-60(TB) leukemia
HOP-62 NSCLC = system: HOP-62 NSCLC
HOP-92 NSCLC = system: HOP-92 NSCLC
HS 578T breast = system: HS 578T breast
HT29 colon = system: HT29 colon
IGROV1 ovarian = system: IGROV1 ovarian
K-562 leukemia = system: K-562 leukemia
KM12 colon = system: KM12 colon
LOX IMVI melanoma = system: LOX IMVI melanoma
M14 melanoma = system: M14 melanoma
MALME-3M melanoma = system: MALME-3M melanoma
MCF7 breast = system: MCF7 breast
MDA-MB-231 breast = system: MDA-MB-231 breast
MDA-MB-435 = system: MDA-MB-435
MOLT-4 leukemia = system: MOLT-4 leukemia
NCI-H226 lung = system: NCI-H226 lung
NCI-H23 lung = system: NCI-H23 lung
NCI-H460 lung = system: NCI-H460 lung
NCI-H522 lung = system: NCI-H522 lung
NCI/ADR-RES ovarian = system: NCI/ADR-RES ovarian
OVCAR-3 ovarian = system: OVCAR-3 ovarian
OVCAR-4 ovarian = system: OVCAR-4 ovarian
OVCAR-5 ovarian = system: OVCAR-5 ovarian
OVCAR-8 ovarian = system: OVCAR-8 ovarian
PC-3 prostate = system: PC-3 prostate
RPMI-8226 leukemia = system: RPMI-8226 leukemia
RXF 393 renal = system: RXF 393 renal
SF-268 CNS = system: SF-268 CNS
SF-295 CNS = system: SF-295 CNS
SF-539 CNS = system: SF-539 CNS
SK-MEL-2 melanoma = system: SK-MEL-2 melanoma
SK-MEL-28 melanoma = system: SK-MEL-28 melanoma
SK-MEL-5 melanoma = system: SK-MEL-5 melanoma
SK-OV-3 ovarian = system: SK-OV-3 ovarian
SN12C renal = system: SN12C renal
SNB-19 CNS = system: SNB-19 CNS
SNB-75 CNS = system: SNB-75 CNS
SR leukemia = system: SR leukemia
SW-620 colon = system: SW-620 colon
T-47D breast = system: T-47D breast
TK-10 renal = system: TK-10 renal
U251 CNS = system: U251 CNS
UACC-257 melanoma = system: UACC-257 melanoma
UACC-62 melanoma = system: UACC-62 melanoma
UO-31 renal = system: UO-31 renal

`COc1ccc2nc(NNC(=O)c3cnccn3)c3cccn3c2c1` was tested, and the GI50 (786-0 renal) was 0.321 µM, the TGI (786-0 renal) was 5.61 µM and the GI50 (A498 renal) was 0.684 µM. It also gave a TGI (A498 renal) of 9.5 µM, a GI50 (A549 NSCLC) of 0.269 µM and a TGI (A549 NSCLC) of 14.3 µM. For the same molecule, the GI50 (ACHN renal) was 0.114 µM, the TGI (ACHN renal) was 7.52 µM and the GI50 (BT-549 breast) was 0.857 µM. It also gave a TGI (BT-549 breast) of 21 µM, a GI50 (CAKI-1 renal) of 0.248 µM and a TGI (CAKI-1 renal) of 15.5 µM. For the same molecule, the GI50 (CCRF-CEM leukemia) was 0.0919 µM, the TGI (CCRF-CEM leukemia) was over 100 µM and the GI50 (COLO 205 colon) was 0.331 µM. For the same molecule, the TGI (COLO 205 colon) was 8.28 µM, the GI50 (DU-145 prostate) was 0.283 µM and the TGI (DU-145 prostate) was 26.7 µM. It also gave a GI50 (EKVX NSCLC) of 0.268 µM, a TGI (EKVX NSCLC) of 18.9 µM and a GI50 (HCC-2998 colon) of 0.522 µM. For the same molecule, the TGI (HCC-2998 colon) was over 52.5 µM, the GI50 (HCT-116 colon) was 0.195 µM and the TGI (HCT-116 colon) was 5.26 µM. For the same molecule, the GI50 (HCT-15 colon) was 0.0611 µM, the TGI (HCT-15 colon) was 2.46 µM and the GI50 (HL-60(TB) leukemia) was 0.27 µM. The GI50 (HOP-62 NSCLC) was 0.118 µM, the TGI (HOP-62 NSCLC) was 20 µM and the GI50 (HOP-92 NSCLC) was 0.93 µM. It also gave a TGI (HOP-92 NSCLC) of 9.65 µM, a GI50 (HS 578T breast) of 2.45 µM and a TGI (HS 578T breast) of over 59.9 µM. It also gave a GI50 (HT29 colon) of 0.414 µM, a TGI (HT29 colon) of over 67.1 µM and a GI50 (IGROV1 ovarian) of 0.132 µM. For the same molecule, the TGI (IGROV1 ovarian) was 2.32 µM, the GI50 (K-562 leukemia) was 0.351 µM and the TGI (K-562 leukemia) was over 100 µM. For the same molecule, the GI50 (KM12 colon) was 0.321 µM, the TGI (KM12 colon) was over 21 µM and the GI50 (LOX IMVI melanoma) was 0.177 µM. It also gave a TGI (LOX IMVI melanoma) of 1.78 µM, a GI50 (M14 melanoma) of 0.208 µM and a TGI (M14 melanoma) of 2.85 µM. It also gave a GI50 (MALME-3M melanoma) of 0.639 µM, a TGI (MALME-3M melanoma) of 15.4 µM and a GI50 (MCF7 breast) of 0.27 µM. The TGI (MCF7 breast) was 2.77 µM, the GI50 (MDA-MB-231 breast) was 0.833 µM and the TGI (MDA-MB-231 breast) was 17.6 µM. The GI50 (MDA-MB-435) was 0.572 µM, the TGI (MDA-MB-435) was over 100 µM and the GI50 (MOLT-4 leukemia) was 0.201 µM. The TGI (MOLT-4 leukemia) was over 100 µM, the GI50 (NCI-H226 lung) was 0.428 µM and the TGI (NCI-H226 lung) was 6.82 µM. It also gave a GI50 (NCI-H23 lung) of 0.545 µM, a TGI (NCI-H23 lung) of over 36 µM and a GI50 (NCI-H460 lung) of 0.134 µM. The TGI (NCI-H460 lung) was 3.88 µM, the GI50 (NCI-H522 lung) was 0.363 µM and the TGI (NCI-H522 lung) was 11.5 µM. It also gave a GI50 (NCI/ADR-RES ovarian) of 0.207 µM, a TGI (NCI/ADR-RES ovarian) of 2.09 µM and a GI50 (OVCAR-3 ovarian) of 0.236 µM. The TGI (OVCAR-3 ovarian) was over 22.3 µM, the GI50 (OVCAR-4 ovarian) was 0.171 µM and the TGI (OVCAR-4 ovarian) was 5.07 µM. The GI50 (OVCAR-5 ovarian) was 0.704 µM, the TGI (OVCAR-5 ovarian) was over 100 µM and the GI50 (OVCAR-8 ovarian) was 0.303 µM. For the same molecule, the TGI (OVCAR-8 ovarian) was over 47.3 µM, the GI50 (PC-3 prostate) was 0.227 µM and the TGI (PC-3 prostate) was over 100 µM. It also gave a GI50 (RPMI-8226 leukemia) of 0.312 µM, a TGI (RPMI-8226 leukemia) of over 100 µM and a GI50 (RXF 393 renal) of 0.663 µM. The TGI (RXF 393 renal) was 7.59 µM, the GI50 (SF-268 CNS) was 0.227 µM and the TGI (SF-268 CNS) was 19.4 µM. It also gave a GI50 (SF-295 CNS) of 0.219 µM, a TGI (SF-295 CNS) of 4.35 µM and a GI50 (SF-539 CNS) of 0.362 µM. It also gave a TGI (SF-539 CNS) of 10.6 µM, a GI50 (SK-MEL-2 melanoma) of 0.688 µM and a TGI (SK-MEL-2 melanoma) of over 100 µM. The GI50 (SK-MEL-28 melanoma) was 0.382 µM, the TGI (SK-MEL-28 melanoma) was 29.8 µM and the GI50 (SK-MEL-5 melanoma) was 0.537 µM. For the same molecule, the TGI (SK-MEL-5 melanoma) was 4.39 µM, the GI50 (SK-OV-3 ovarian) was 0.54 µM and the TGI (SK-OV-3 ovarian) was 9.09 µM. It also gave a GI50 (SN12C renal) of 0.426 µM, a TGI (SN12C renal) of 13.9 µM and a GI50 (SNB-19 CNS) of 0.35 µM. For the same molecule, the TGI (SNB-19 CNS) was 28 µM, the GI50 (SNB-75 CNS) was 0.408 µM and the TGI (SNB-75 CNS) was 9.31 µM. The GI50 (SR leukemia) was 0.121 µM, the TGI (SR leukemia) was over 100 µM and the GI50 (SW-620 colon) was 0.315 µM. It also gave a GI50 (T-47D breast) of 0.433 µM, a TGI (T-47D breast) of 25.5 µM and a GI50 (TK-10 renal) of 0.329 µM. For the same molecule, the TGI (TK-10 renal) was over 100 µM, the GI50 (U251 CNS) was 0.184 µM and the TGI (U251 CNS) was 7.16 µM. It also gave a GI50 (UACC-257 melanoma) of 0.689 µM, a TGI (UACC-257 melanoma) of 7.62 µM and a GI50 (UACC-62 melanoma) of 0.278 µM. The TGI (UACC-62 melanoma) was 2.48 µM, the GI50 (UO-31 renal) was 0.11 µM and the TGI (UO-31 renal) was 4.98 µM.
